From US9730934B2, “Quinazoline derivatives substituted by aniline, preparation method and use thereof” (XUANZHU PHARMA CO., LTD., priority 2010, dated 2017) come the findings set out here.

The structures appear in SMILES notation. Structures can show the parent of a compound that is named as a salt.

What all share (test): In vitro enzyme inhibitory activity (Caliper mobility shift, FAM labeled peptide)
Format in all cases: biochemical
Common to all, as to conditions: 28° C., 1 h reaction

One assay has as its target HER2 (Homo sapiens (Human), UniProt P04626). The protocol:
(§1) In Vitro Enzyme Inhibitory Activity of the Present Compounds
HER2: human epidermal growth factor receptor 2 (Carna);
(§2) 1. Formulating the agents to be used in the assay
(§3) (6) 5-fold compound solutions (using 100% DMSO to formulate 50-fold compound solutions having different concentration gradients, and diluting with water by 10 times to obtain 5-fold compound solutions having different concentration gradients);
(§4) 2. Adding 5 μL of a 5-fold compound solution to a 384-well plate;
(§5) 3. Adding 10 μL of a 2.5-fold kinase solution to incubate for 10 min;
(§6) 4. Then adding 10 μL of a 2.5-fold peptide solution, and reacting at 28° C. for 1 h; and
(§7) 5. Finally, adding 25 μL of stop buffer to terminate the reaction, and reading the data with Caliper.
(§8) 6. Curve fitting to obtain an IC50 value. The calculated inhibition ratio (%)=(the maximum conversion rate−the conversion rate)/(the maximum conversion rate−the minimum conversion rate)×100
(§9) The curve fitting was conducted with the Xlfit software to obtain IC50 values.

A further assay addresses HER4 (Homo sapiens (Human), UniProt Q15303). The protocol: as §1
HER4: human epidermal growth factor receptor 4 (Carna).
as §2, §3, §4, §5, §6, §7, §8, §9

The target of another assay is EGFR (Homo sapiens (Human), UniProt P00533). On the procedure: as §1
EGFR: human epidermal growth factor receptor (Carna);
as §2, §3, §4, §5, §6, §7, §8, §9

HER4, sequence (Q15303 26-1308): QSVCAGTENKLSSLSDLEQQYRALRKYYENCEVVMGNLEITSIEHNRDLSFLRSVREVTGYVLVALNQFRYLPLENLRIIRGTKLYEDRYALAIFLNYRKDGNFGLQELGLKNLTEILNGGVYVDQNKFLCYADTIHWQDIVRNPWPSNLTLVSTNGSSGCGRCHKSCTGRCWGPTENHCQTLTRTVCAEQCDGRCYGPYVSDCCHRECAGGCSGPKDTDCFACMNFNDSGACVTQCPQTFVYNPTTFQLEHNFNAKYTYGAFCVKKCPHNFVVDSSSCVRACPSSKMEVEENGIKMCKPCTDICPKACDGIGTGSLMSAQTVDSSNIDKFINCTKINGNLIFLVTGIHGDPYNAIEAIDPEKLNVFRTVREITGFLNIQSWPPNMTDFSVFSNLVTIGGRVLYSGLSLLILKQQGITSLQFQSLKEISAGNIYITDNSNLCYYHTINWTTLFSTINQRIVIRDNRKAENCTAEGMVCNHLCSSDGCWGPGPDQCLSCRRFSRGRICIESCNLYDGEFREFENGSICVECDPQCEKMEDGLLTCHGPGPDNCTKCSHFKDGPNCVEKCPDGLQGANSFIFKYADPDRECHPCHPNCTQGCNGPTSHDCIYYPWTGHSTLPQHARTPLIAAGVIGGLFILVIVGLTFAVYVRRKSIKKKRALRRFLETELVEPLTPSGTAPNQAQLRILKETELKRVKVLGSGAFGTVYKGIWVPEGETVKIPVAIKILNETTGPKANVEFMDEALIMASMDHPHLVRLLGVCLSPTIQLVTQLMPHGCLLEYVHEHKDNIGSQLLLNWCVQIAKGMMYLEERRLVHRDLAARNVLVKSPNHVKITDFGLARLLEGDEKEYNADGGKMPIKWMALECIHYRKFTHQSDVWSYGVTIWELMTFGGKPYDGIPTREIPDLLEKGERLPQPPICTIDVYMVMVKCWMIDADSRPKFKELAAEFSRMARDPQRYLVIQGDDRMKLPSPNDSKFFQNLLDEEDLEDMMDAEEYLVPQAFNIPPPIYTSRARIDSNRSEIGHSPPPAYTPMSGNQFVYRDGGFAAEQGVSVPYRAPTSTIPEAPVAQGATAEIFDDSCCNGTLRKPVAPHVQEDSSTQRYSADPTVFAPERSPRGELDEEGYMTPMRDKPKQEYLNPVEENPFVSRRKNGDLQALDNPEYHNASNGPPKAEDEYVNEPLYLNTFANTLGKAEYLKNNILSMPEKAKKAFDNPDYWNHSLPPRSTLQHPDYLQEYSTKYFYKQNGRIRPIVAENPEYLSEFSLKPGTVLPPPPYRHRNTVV
EGFR, sequence (P00533 25-1210): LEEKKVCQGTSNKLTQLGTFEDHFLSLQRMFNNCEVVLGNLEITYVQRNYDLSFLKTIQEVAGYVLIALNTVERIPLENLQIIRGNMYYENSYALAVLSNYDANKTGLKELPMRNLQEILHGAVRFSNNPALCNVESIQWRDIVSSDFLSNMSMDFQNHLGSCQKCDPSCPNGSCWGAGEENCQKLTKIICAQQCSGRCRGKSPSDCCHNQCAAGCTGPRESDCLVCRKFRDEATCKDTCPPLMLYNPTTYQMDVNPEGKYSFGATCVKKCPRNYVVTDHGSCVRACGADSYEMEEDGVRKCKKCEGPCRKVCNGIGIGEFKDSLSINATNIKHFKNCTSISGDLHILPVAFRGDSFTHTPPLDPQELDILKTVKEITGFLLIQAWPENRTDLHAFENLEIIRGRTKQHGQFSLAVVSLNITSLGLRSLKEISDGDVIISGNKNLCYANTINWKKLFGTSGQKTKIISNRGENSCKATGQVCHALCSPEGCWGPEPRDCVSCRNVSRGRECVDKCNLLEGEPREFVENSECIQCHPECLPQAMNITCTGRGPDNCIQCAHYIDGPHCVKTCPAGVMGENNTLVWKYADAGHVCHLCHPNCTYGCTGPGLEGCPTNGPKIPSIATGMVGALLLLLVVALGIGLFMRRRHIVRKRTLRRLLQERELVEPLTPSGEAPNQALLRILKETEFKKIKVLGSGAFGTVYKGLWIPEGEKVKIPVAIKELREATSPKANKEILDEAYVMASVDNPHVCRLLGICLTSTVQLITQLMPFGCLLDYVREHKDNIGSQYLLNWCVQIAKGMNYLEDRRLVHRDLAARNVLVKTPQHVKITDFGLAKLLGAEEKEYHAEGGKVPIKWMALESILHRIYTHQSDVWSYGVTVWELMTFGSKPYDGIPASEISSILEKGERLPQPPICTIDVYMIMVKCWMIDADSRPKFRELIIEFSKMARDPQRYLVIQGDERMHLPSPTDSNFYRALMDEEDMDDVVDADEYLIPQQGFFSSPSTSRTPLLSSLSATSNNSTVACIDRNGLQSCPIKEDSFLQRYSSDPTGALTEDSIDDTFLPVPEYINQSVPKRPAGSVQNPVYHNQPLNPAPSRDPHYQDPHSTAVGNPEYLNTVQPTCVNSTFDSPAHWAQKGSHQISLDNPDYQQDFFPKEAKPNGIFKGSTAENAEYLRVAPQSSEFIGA
HER2, sequence (P04626 23-1255): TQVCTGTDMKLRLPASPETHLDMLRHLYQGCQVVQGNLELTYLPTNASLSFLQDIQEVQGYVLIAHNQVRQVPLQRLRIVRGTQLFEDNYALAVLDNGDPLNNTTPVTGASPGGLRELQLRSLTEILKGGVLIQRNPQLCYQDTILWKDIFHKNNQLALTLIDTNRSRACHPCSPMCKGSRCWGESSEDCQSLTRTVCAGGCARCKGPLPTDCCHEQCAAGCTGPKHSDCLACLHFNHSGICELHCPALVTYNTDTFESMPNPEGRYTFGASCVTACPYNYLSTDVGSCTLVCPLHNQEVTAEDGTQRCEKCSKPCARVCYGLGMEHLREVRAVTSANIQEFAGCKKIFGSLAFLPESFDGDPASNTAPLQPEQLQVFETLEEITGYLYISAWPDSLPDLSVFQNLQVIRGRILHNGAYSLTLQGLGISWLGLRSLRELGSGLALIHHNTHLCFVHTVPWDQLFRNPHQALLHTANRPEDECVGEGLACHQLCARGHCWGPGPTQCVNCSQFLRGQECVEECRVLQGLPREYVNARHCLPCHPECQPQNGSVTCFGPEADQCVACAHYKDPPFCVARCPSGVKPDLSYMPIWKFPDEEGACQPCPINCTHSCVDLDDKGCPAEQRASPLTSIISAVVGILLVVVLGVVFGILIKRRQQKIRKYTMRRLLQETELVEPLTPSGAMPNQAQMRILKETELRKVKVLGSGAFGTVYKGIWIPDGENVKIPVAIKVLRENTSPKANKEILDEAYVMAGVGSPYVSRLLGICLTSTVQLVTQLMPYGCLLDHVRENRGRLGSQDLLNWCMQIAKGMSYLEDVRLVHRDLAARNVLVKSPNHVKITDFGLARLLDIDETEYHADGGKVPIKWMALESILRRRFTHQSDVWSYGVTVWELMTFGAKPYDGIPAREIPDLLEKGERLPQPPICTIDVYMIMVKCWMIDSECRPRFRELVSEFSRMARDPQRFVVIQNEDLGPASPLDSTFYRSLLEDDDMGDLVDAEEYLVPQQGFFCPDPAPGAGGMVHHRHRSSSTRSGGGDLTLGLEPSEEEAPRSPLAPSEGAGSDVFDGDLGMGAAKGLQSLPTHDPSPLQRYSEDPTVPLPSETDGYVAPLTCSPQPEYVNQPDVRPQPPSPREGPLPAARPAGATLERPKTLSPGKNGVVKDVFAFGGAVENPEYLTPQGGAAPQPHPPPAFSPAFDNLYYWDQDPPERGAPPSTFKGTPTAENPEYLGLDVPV

Regarding `C=CC(=O)Nc1cc2c(Nc3ccc(F)c(Cl)c3)ncnc2cc1OCC[C@@H]1[C@H]2CN(C)C[C@@H]12` [Compound 8], the IC50 on HER2 was found to be 6.5 nM; on HER4, 3.4 nM.

For the molecule `C=CC(=O)Nc1cc2c(Nc3ccc(F)c(Cl)c3)ncnc2cc1OCCC1CC2(CCN(C)CC2)C1` [Compound 19 hydrochloride, N-[4-(3-chloro-4-fluorophenylamino)-7-(2-(7-methyl-7-azaspiro[3.5]nonan-2-yl)ethoxy)quinazolin-6-yl]-acrylamide hydrochloride], the IC50 at EGFR amounted to 0.56 nM; on HER2 it was 3.1 nM; at HER4, 3.7 nM.

As for `C=CC(=O)Nc1cc2c(Nc3ccc(F)c(Cl)c3)ncnc2cc1OCCC1C2CCC1CN(C)C2` (stereo not shown) [Compound 11, N-[4-(3-chloro-4-fluorophenylamino)-7-(2-(3-methyl-3-azabicyclo[3.2.1]octan-8-yl)ethoxy)quinazolin-6-yl]-acrylamide], the half-inhibitory concentration (IC50) is 0.8 nM at EGFR, 12 nM on HER2 and 8.3 nM on HER4.

As to `C=CC(=O)Nc1cc2c(Nc3ccc(F)c(Cl)c3)ncnc2cc1OCC1CC2(CCN(C)CC2)C1` [Compound 18, N-[4-(3-chloro-4-fluorophenylamino)-7-((7-methyl-7-azaspiro[3.5]nonan-2-yl)methoxy)quinazolin-6-yl]-acrylamide], the values for the IC50 at EGFR, at HER2 and at HER4 were 1 nM, 6.5 nM and 1.9 nM, respectively.

With `C=CC(=O)Nc1cc2c(Nc3ccc(F)c(Cl)c3)ncnc2cc1OCC1COC2(CCN(C)CC2)C1` (stereo not shown) [Compound 6, N-[4-(3-chloro-4-fluorophenylamino)-7-((8-methyl-1-oxa-8-azaspiro[4.5]decan-3-yl)methoxy)quinazolin-6-yl]-acrylamide], the IC50 on EGFR amounted to 1 nM; on HER2, 7.1 nM; on HER4, 1.4 nM.

For `C=CC(=O)Nc1cc2c(Nc3ccc(F)c(Cl)c3)ncnc2cc1OCCC1CC12CCN(C)CC2` (stereo not shown) [Compound 14, N-[4-(3-chloro-4-fluorophenylamino)-7-(2-(6-methyl-6-azaspiro[2.5]octan-1-yl)ethoxy)quinazolin-6-yl]-acrylamide], the IC50 came out at 0.39 nM at EGFR, 2.6 nM at HER2 and 1.2 nM at HER4.

For the molecule `C=CC(=O)Nc1cc2c(Nc3ccc(F)c(Cl)c3)ncnc2cc1OCC1CCC2(CCN(C)CC2)O1` (stereo not shown) [Compound 7, N-[4-(3-chloro-4-fluorophenylamino)-7-(8-methyl-1-oxa-8-azaspiro[4.5]decan-2-ylmethoxy)quinazolin-6-yl]-acrylamide], the results for the IC50 at HER2 and at HER4 were 4.3 nM and 1.7 nM, respectively.

For orientation: IC50 means the concentration at which inhibition is half-maximal.
